# In PubChem BioAssay (NCI):
#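 96-well plates; 48 h exposure; 5 concentrations. Endpoints by linear interpolation between flanking doses. Not reached: highest tested concentration assigned. Abbreviation: GI50, concentration required for 50% inhibition of growth. Definition used: TGI = concentration required for complete inhibition of growth.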
# Columns and labels:
# Test in all cases: growth of human tumour cells (NCI), 48 h
# HL-60(TB) leukemia = system: HL-60(TB) leukemia
# SK-MEL-28 melanoma = system: SK-MEL-28 melanoma
# K-562 leukemia = system: K-562 leukemia
# PC-3 prostate = system: PC-3 prostate
# NCI-H522 lung = system: NCI-H522 lung
# HCC-2998 colon = system: HCC-2998 colon
# NCI-H460 lung = system: NCI-H460 lung
# RPMI-8226 leukemia = system: RPMI-8226 leukemia
# NCI/ADR-RES ovarian = system: NCI/ADR-RES ovarian
# UACC-62 melanoma = system: UACC-62 melanoma
# UO-31 renal = system: UO-31 renal
# LOX IMVI melanoma = system: LOX IMVI melanoma
# OVCAR-4 ovarian = system: OVCAR-4 ovarian
# SNB-75 CNS = system: SNB-75 CNS
# U251 CNS = system: U251 CNS
# TK-10 renal = system: TK-10 renal
# MCF7 breast = system: MCF7 breast
# EKVX NSCLC = system: EKVX NSCLC
# OVCAR-5 ovarian = system: OVCAR-5 ovarian
# DU-145 prostate = system: DU-145 prostate
# HOP-92 NSCLC = system: HOP-92 NSCLC
# OVCAR-8 ovarian = system: OVCAR-8 ovarian
# SF-539 CNS = system: SF-539 CNS
# MALME-3M melanoma = system: MALME-3M melanoma
# MOLT-4 leukemia = system: MOLT-4 leukemia
# NCI-H226 lung = system: NCI-H226 lung
# M14 melanoma = system: M14 melanoma
# SNB-19 CNS = system: SNB-19 CNS
# MDA-MB-231 breast = system: MDA-MB-231 breast
# MDA-MB-468 breast = system: MDA-MB-468 breast
# OVCAR-3 ovarian = system: OVCAR-3 ovarian
# CAKI-1 renal = system: CAKI-1 renal
# HS 578T breast = system: HS 578T breast
# SF-268 CNS = system: SF-268 CNS
# MDA-MB-435 = system: MDA-MB-435
# KM12 colon = system: KM12 colon
# HT29 colon = system: HT29 colon
# SK-MEL-5 melanoma = system: SK-MEL-5 melanoma
# SK-OV-3 ovarian = system: SK-OV-3 ovarian
# A549 NSCLC = system: A549 NSCLC
# HOP-62 NSCLC = system: HOP-62 NSCLC
# A498 renal = system: A498 renal
# RXF 393 renal = system: RXF 393 renal
# SW-620 colon = system: SW-620 colon
# T-47D breast = system: T-47D breast
# SR leukemia = system: SR leukemia
# CCRF-CEM leukemia = system: CCRF-CEM leukemia
# SN12C renal = system: SN12C renal
# UACC-257 melanoma = system: UACC-257 melanoma
# HCT-116 colon = system: HCT-116 colon
# COLO 205 colon = system: COLO 205 colon
# IGROV1 ovarian = system: IGROV1 ovarian
# BT-549 breast = system: BT-549 breast
# SF-295 CNS = system: SF-295 CNS
# 786-0 renal = system: 786-0 renal
# ACHN renal = system: ACHN renal
# HCT-15 colon = system: HCT-15 colon
# NCI-H23 lung = system: NCI-H23 lung
# SK-MEL-2 melanoma = system: SK-MEL-2 melanoma
compound,measurement,setting,value
Cc1ccc(C2CC(c3ccc(NC(=S)Nc4ccccc4)cc3)=NN2c2ccc(S(N)(=O)=O)cc2)cc1 (stereo not drawn),GI50,HL-60(TB) leukemia,2.33 µM
same,TGI,HL-60(TB) leukemia,6.51 µM
same,GI50,SK-MEL-28 melanoma,4.69 µM
same,TGI,SK-MEL-28 melanoma,16.4 µM
same,GI50,K-562 leukemia,3.2 µM
same,TGI,K-562 leukemia,47.6 µM
same,GI50,PC-3 prostate,2.75 µM
same,TGI,PC-3 prostate,14 µM
same,GI50,NCI-H522 lung,2.84 µM
same,TGI,NCI-H522 lung,14.8 µM
same,GI50,HCC-2998 colon,3.58 µM
same,TGI,HCC-2998 colon,18.3 µM
same,GI50,NCI-H460 lung,3.1 µM
same,TGI,NCI-H460 lung,11.5 µM
same,GI50,RPMI-8226 leukemia,3.45 µM
same,TGI,RPMI-8226 leukemia,> 100 µM
same,GI50,NCI/ADR-RES ovarian,4.04 µM
same,TGI,NCI/ADR-RES ovarian,49.5 µM
same,GI50,UACC-62 melanoma,3.45 µM
same,TGI,UACC-62 melanoma,16 µM
same,GI50,UO-31 renal,2.67 µM
same,TGI,UO-31 renal,13.3 µM
same,GI50,LOX IMVI melanoma,4.76 µM
same,TGI,LOX IMVI melanoma,20 µM
same,GI50,OVCAR-4 ovarian,4.06 µM
same,TGI,OVCAR-4 ovarian,33.5 µM
same,GI50,SNB-75 CNS,2.01 µM
same,TGI,SNB-75 CNS,14.6 µM
same,GI50,U251 CNS,5.29 µM
same,TGI,U251 CNS,24.2 µM
same,GI50,TK-10 renal,3.09 µM
same,TGI,TK-10 renal,17.6 µM
same,GI50,MCF7 breast,2.78 µM
same,TGI,MCF7 breast,14.2 µM
same,GI50,EKVX NSCLC,3.75 µM
same,TGI,EKVX NSCLC,37.3 µM
same,GI50,OVCAR-5 ovarian,4.54 µM
same,TGI,OVCAR-5 ovarian,17.9 µM
same,GI50,DU-145 prostate,8.22 µM
same,TGI,DU-145 prostate,97.1 µM
same,GI50,HOP-92 NSCLC,3.81 µM
same,TGI,HOP-92 NSCLC,22 µM
same,GI50,OVCAR-8 ovarian,5.96 µM
same,TGI,OVCAR-8 ovarian,67.8 µM
same,GI50,SF-539 CNS,5.4 µM
same,TGI,SF-539 CNS,19.8 µM
same,GI50,MALME-3M melanoma,6.88 µM
same,TGI,MALME-3M melanoma,23.6 µM
same,GI50,MOLT-4 leukemia,2.62 µM
same,TGI,MOLT-4 leukemia,13.2 µM
same,GI50,NCI-H226 lung,3.31 µM
same,TGI,NCI-H226 lung,19.1 µM
same,GI50,M14 melanoma,4.2 µM
same,TGI,M14 melanoma,17.8 µM
same,GI50,SNB-19 CNS,4.97 µM
same,TGI,SNB-19 CNS,23.2 µM
same,GI50,MDA-MB-231 breast,9.63 µM
same,TGI,MDA-MB-231 breast,29.6 µM
same,GI50,MDA-MB-468 breast,1.81 µM
same,TGI,MDA-MB-468 breast,5.56 µM
same,GI50,OVCAR-3 ovarian,3.28 µM
same,TGI,OVCAR-3 ovarian,22.7 µM
same,GI50,CAKI-1 renal,3.12 µM
same,TGI,CAKI-1 renal,12.7 µM
same,GI50,HS 578T breast,8.04 µM
same,TGI,HS 578T breast,48.4 µM
same,GI50,SF-268 CNS,4.11 µM
same,TGI,SF-268 CNS,> 100 µM
same,GI50,MDA-MB-435,3.06 µM
same,TGI,MDA-MB-435,25 µM
same,GI50,KM12 colon,4.67 µM
same,TGI,KM12 colon,23.7 µM
same,GI50,HT29 colon,2.55 µM
same,TGI,HT29 colon,8.75 µM
same,GI50,SK-MEL-5 melanoma,4.83 µM
same,TGI,SK-MEL-5 melanoma,17.8 µM
same,GI50,SK-OV-3 ovarian,11 µM
same,TGI,SK-OV-3 ovarian,32.9 µM
same,GI50,A549 NSCLC,4.09 µM
same,TGI,A549 NSCLC,> 100 µM
same,GI50,HOP-62 NSCLC,8.74 µM
same,TGI,HOP-62 NSCLC,34.2 µM
same,GI50,A498 renal,6.73 µM
same,TGI,A498 renal,25.8 µM
same,GI50,RXF 393 renal,2.99 µM
same,TGI,RXF 393 renal,12.7 µM
same,GI50,SW-620 colon,3.52 µM
same,TGI,SW-620 colon,26.6 µM
same,GI50,T-47D breast,3.16 µM
same,TGI,T-47D breast,17.5 µM
same,GI50,SR leukemia,3.3 µM
same,TGI,SR leukemia,27.2 µM
same,GI50,CCRF-CEM leukemia,3.18 µM
same,TGI,CCRF-CEM leukemia,53.1 µM
same,GI50,SN12C renal,4.23 µM
same,TGI,SN12C renal,29.5 µM
same,GI50,UACC-257 melanoma,6.4 µM
same,TGI,UACC-257 melanoma,30.9 µM
same,GI50,HCT-116 colon,3.28 µM
same,TGI,HCT-116 colon,16.9 µM
same,GI50,COLO 205 colon,3.56 µM
same,TGI,COLO 205 colon,12.3 µM
same,GI50,IGROV1 ovarian,3.44 µM
same,TGI,IGROV1 ovarian,14.7 µM
same,GI50,BT-549 breast,6.06 µM
same,TGI,BT-549 breast,19.3 µM
same,GI50,SF-295 CNS,3.28 µM
same,TGI,SF-295 CNS,15.7 µM
same,GI50,786-0 renal,3.89 µM
same,TGI,786-0 renal,22.5 µM
same,GI50,ACHN renal,3.25 µM
same,TGI,ACHN renal,11.6 µM
same,GI50,HCT-15 colon,3.05 µM
same,TGI,HCT-15 colon,18.8 µM
same,GI50,NCI-H23 lung,5.79 µM
same,TGI,NCI-H23 lung,34 µM
same,GI50,SK-MEL-2 melanoma,6.22 µM
same,TGI,SK-MEL-2 melanoma,21.1 µM
